Like-named read-outs stand apart in the source and are kept apart here.
Assays:
[1] = Pharmacokinetic model: accumulation of E2MATE+EMATE, Example 3; design: species or system human
Description: As shown on FIG. 2, the accumulation ratio (Racc) based on the accumulation between two doses during one week time could be calculated. […] This could be achieved for example by the administration of 1 mg every 3 days or 2 mg per week (FIG. 2B).

[2] = target: T1, STS activity in PBMCs (Homo sapiens, UniProt P08842); assay: STS activity in PBMCs, Example 2 (LC-MS/MS); format: in vivo; conditions: E2MATE 4 mg weekly and/or NETA 10 mg daily for 4 weeks
T1 construct: Pharmacodynamic properties were investigated by assessment of the STS activity in PBMCs; endogenous in cells; host or cells: peripheral blood mononuclear cells (PBMCs) of dosed women
T1 sequence (P08842 22-583): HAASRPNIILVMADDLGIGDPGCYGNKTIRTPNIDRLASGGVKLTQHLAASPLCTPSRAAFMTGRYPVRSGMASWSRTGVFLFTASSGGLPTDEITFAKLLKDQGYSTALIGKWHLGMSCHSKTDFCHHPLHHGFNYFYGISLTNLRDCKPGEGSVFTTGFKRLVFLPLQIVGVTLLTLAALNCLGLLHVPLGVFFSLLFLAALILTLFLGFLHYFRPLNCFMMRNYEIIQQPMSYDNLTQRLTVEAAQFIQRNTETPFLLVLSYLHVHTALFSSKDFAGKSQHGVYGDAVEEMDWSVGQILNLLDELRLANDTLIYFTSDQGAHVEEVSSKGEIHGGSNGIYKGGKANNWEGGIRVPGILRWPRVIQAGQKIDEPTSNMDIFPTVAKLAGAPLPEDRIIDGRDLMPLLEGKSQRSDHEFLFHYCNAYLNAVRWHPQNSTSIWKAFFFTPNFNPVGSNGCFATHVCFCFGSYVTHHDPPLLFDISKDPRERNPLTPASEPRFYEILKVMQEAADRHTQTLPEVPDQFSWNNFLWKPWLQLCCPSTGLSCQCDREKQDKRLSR
Description: STS activity was determined by spiking specimens with labelled E1-S and by measuring its conversion to E1 per gram protein under standardized incubation conditions using LC-MS/MS. Protein concentration was evaluated with a validated colorimetric assay (Bradford method).

[3] = tested on: STS; assay: Functional biomarkers of STS activity (E1-S to E1 and DHEA-S to DHEA ratios), Example 2; format: in vivo, human
Description: Hormone profiles were determined as described in Example 1.
As described before, STS converts sulphate precursors of estrogens.

[4] = target: T2, STS activity in the uterus or in induced lesions (Mus musculus, UniProt P50427); conditions: highest dose (1 mg/kg daily oral, 21 days); cited from earlier work
T2 construct: host or cells: mouse uterus or induced endometriosis-like lesions
T2 sequence (P50427 23-624): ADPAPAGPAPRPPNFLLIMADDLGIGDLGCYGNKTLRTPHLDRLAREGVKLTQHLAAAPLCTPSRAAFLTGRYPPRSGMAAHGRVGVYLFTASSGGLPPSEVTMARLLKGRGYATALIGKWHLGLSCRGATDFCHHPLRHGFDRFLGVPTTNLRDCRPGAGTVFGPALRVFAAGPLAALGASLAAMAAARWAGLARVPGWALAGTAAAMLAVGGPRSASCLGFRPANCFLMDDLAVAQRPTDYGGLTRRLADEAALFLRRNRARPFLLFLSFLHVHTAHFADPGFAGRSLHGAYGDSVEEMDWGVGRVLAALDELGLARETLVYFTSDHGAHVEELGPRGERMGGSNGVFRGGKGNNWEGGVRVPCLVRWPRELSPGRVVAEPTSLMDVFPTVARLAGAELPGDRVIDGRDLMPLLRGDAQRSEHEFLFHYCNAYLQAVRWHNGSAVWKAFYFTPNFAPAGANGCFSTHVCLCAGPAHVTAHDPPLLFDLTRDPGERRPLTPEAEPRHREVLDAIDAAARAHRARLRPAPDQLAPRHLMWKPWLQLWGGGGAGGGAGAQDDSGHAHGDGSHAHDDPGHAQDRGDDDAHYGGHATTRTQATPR

[5] = target: T3, Steroid Sulfatase in PBMCs (Homo sapiens, UniProt P08842); assay: STS activity in PBMCs, Example 1 (radio scintillation assay); format: in vivo; conditions: for Emax: read-out: Emax (%) maximal inhibition of Steroid Sulfatase in PBMCs, Mean (SD); for STS inhibition in PBMCs: single dose 4 mg E2MATE
T3 construct: Pharmacodynamic properties were investigated by assessment of the STS activity in PBMCs; endogenous in cells; host or cells: peripheral blood mononuclear cells (PBMCs) of dosed women
T3 sequence (P08842 22-583): T1 sequence (P08842 22-583)
Description: Treatment was started within 72 hours after the beginning of menstrual bleeding.
The active doses tested were 0.25 mg (1st cohort), 1 mg, 4 mg and 8 mg.
The active doses tested were 0.25 mg, 1 mg and 4 mg.
Ovarian and endometrium transvaginal ultrasounds throughout the study (Part A and B) and an endometrial biopsy (Part B only) were performed.
Pharmacodynamic properties were investigated by assessment of the STS activity in PBMCs and by measurement of the serum hormonal profile comprising the ratio of E1-S to E1 and DHEA-S to DHEA. […] Hormone profiles were analysed using commercially available ELISA or RIA kits.

[6] = NETA treatment period, days 8 to 29
[7] = multiple dose 0.25 mg E2MATE weekly for four weeks
[8] = multiple dose 1 mg E2MATE weekly for four weeks
[9] = multiple dose 4 mg E2MATE weekly for four weeks

C[C@]12CC[C@@H]3c4ccc(OS(N)(=O)=O)cc4CC[C@H]3[C@@H]1CC[C@@H]2O [E2MATE, Estradiol-3-o-sulfamate]
accumulation ratio (Racc) of E2MATE+EMATE ([1]; Cmin 504 h versus Cmin 168 h, 4 mg/week during 4 weeks): about 2.7
E2MATE dose necessary to maintain the blood levels reached after the loading period ([1]; after loading 4 mg/week during 4 weeks): 0.36 mg/day
mean percentage inhibition of STS activity in PBMCs ([2]; Day 4): 90%
percentage inhibition of STS activity in PBMCs ([2]; Day 113): 37%
average inhibition of STS activity in PBMCs [2]: 82.6%
mean maximal inhibition of STS activity in PBMCs [2]: 94.7%
Baseline relative change of the DHEA-S/DHEA [%] ([3]; Day 1): 0%
Baseline relative change of the E1-S/E1 [%] ([3]; Day 1): 0%
Baseline relative change of the DHEA-S/DHEA [%] ([3]; Day 8): 133%
Baseline relative change of the E1-S/E1 [%] ([3]; Day 8): 208%
Baseline relative change of the DHEA-S/DHEA [%] ([3]; Day 15): 116%
Baseline relative change of the E1-S/E1 [%] ([3]; Day 15): 282%
Baseline relative change of the DHEA-S/DHEA [%] ([3]; Day 22): 113%
Baseline relative change of the E1-S/E1 [%] ([3]; Day 22): 218%
Baseline relative change of the DHEA-S/DHEA [%] ([3]; Day 29): 148%
Baseline relative change of the E1-S/E1 [%] ([3]; Day 29): 194%
Baseline relative change of the DHEA-S/DHEA [%] ([3]; Day 57): 195%
Baseline relative change of the E1-S/E1 [%] ([3]; Day 57): 218%
Baseline relative change of the DHEA-S/DHEA [%] ([3]; Day 85): 232%
Baseline relative change of the E1-S/E1 [%] ([3]; Day 85): 243%
Baseline relative change of the DHEA-S/DHEA [%] ([3]; Day 113): 175%
Baseline relative change of the E1-S/E1 [%] ([3]; Day 113): 400%
baseline relative mean increases of the DHEA-S to DHEA ratio (up to) [3, 6]: up to 265%
baseline relative mean increases of the E1-S to E1 ratio (up to) [3, 6]: up to 282%
STS activity inhibition in the uterus or in induced lesions [4]: ≤ 36%
AVG (%) average inhibition of Steroid Sulfatase in PBMCs, Mean (SD) [5, 7]: 22.7 (16.5) %
Emax [5, 7]: 42%
AVG (%) average inhibition of Steroid Sulfatase in PBMCs, Mean (SD) [5, 8]: 43.5 (23.2) %
Emax [5, 8]: 79.5%
AVG (%) average inhibition of Steroid Sulfatase in PBMCs, Mean (SD) [5, 9]: 88.4 (9.5) %
Emax [5, 9]: 100%
Emax ([5]; po, single oral dose 0.25 mg E2MATE): 59.5%
Emax ([5]; po, single oral dose 1 mg E2MATE): 58.7%
Emax ([5]; po, single oral dose 4 mg E2MATE): 99.5%
STS inhibition in PBMCs ([5]; Day 0 of cycle 2 (approximately 56 days after dosing)): 82%
STS inhibition in PBMCs ([5]; Day 3): 96%
AVG (%) average inhibition of Steroid Sulfatase in PBMCs, Mean (SD) ([5]; single oral dose 0.25 mg E2MATE, Day 1 until EOS): 23.2 (14.6) %
AVG (%) average inhibition of Steroid Sulfatase in PBMCs, Mean (SD) ([5]; single oral dose 1 mg E2MATE, Day 1 until EOS): 25.2 (10.6) %

Reference: patent US20150065470A1, “Steroid Sulfatase Inhibitor Regimen for the Treatment of Endometriosis” (priority 2012, published 2015)
